Assay: Acid stability (acid-mediated hydrolytic decomposition, simulated stomach conditions)
Format: physicochemical
Details: pH 1, 25° C.; for Compound left (%): 0.3 mg/mL in dilute hydrochloric acid, HPLC
Description: Compounds were tested for their stability towards acid-mediated hydrolytic decomposition employing a test designed to simulate stomach conditions. Each compound was incubated at an initial concentration of 0.3 mg/mL in dilute hydrochloric acid at pH 1 for 24 hours at 25° C. HPLC was run immediately for t=0 and at intervals up to approximately 24 hours. The results for compounds of Example 2, part b, Example 9, and for comparative phosphoramidates of 2′,3′-dideoxy-adenosine (Compound 1093) and 2′,3′-didehydro-2′,3′-dideoxy-adenosine (Compound 1001), described in PCT/GB96/00580, are given in the table below.

SMILES: COC(=O)C(C)(C)NP(=O)(OC[C@@H]1C=C[C@H](n2cnc3c(NCC4CC4)nc(N)nc32)C1)Oc1ccccc1 (relative stereo) [Example 9]
- Compound left (%) (Time 0 hr): 100%
- Compound left (%) (Time 13 hr): 96%
- Compound left (%) (Time 24 hr): 94%
- Acid stability in words (after 24 hours, dilute hydrochloric acid): remained intact
